Test results published in publication PMC10044120, “Potent and selective covalent inhibition of the papain-like protease from SARS-CoV-2” (Nature Communications, 2023).
Values joined by “and” are separate entries in the source; they are usually repeats but may differ in a detail not shown here. Equal values may be shown once. Read-outs that look alike come from different tables or passages of the source.

Key:
UCH-L1 = settings: cited from earlier work
HAUSP = settings: cited from earlier work
Vero E6 cells [1] = settings: African green monkey
deISGylase USP18 = settings: cited from earlier work
in vitro = settings: African green monkey, cytotoxicity, %cell viability
UCH-L3 = settings: cited from earlier work
[2] = test system: SARS-CoV-2 isolate USA-WA1/2020; experiment: microbe, parasite or virus in culture; settings: Severe acute respiratory syndrome coronavirus 2, Vero C1008, read-out: cytopathic effect, % cell viability
[3] = test system: SARS-CoV-2 isolate USA-WA1/2020; settings: African green monkey
[4] = test system: SARS-CoV-2 Delta (B.1.617.2); experiment: CPE assay, neutral red, Vero E6 cells with 2 μM CP-100356, Delta; format: cell-based; settings: Delta (B1.617.2), Vero E6, 2 μM CP-100356
[5] = test system: SARS-CoV-2 Delta (B.1.617.2); experiment: microbe, parasite or virus in culture; format: cell-based; settings: Delta (B1.617.2), Caco-2
[6] = test system: SARS-CoV-2 Omicron (B.1.1.529); experiment: microbe, parasite or virus in culture; format: cell-based; settings: Omicron (B1.1.529), Caco-2
SARS-CoV-2 USA-WA1/2020 [7] = experiment: microbe, parasite or virus in culture; format: cell-based; settings: for Virus Titer: USA-WA1/2020
SARS-CoV-2 USA-WA1/2020 [8] = experiment: CPE assay, neutral red, Vero E6 cells with 2 μM CP-100356, USA-WA1/2020; format: cell-based; settings: for Percent Cytopathic Effect (Neutral Red): USA-WA1/2020
Caco-2 cells = settings: for Percent Cytotoxicity (Neutral Red): Caco-2
Vero E6 cells [9] = settings: for Percent Cytotoxicity (Neutral Red): Vero E6

SMILES: Cc1ccc(N)cc1C(=O)N[C@H](C)c1cccc2ccccc12 [GRL0617, reference compound]
- IC50 (UCH-L1): > 100 µM
- IC50 (HAUSP): > 100 µM
- cytotoxicity, %cell viability (Vero E6 cells [1]; 2.08 µM): 100.64%
- cytotoxicity, %cell viability (Vero E6 cells [1]; 8.33 µM): 100.01%
- cytotoxicity, %cell viability (Vero E6 cells [1]; 16.65 µM): 87.87%
- IC50 (deISGylase USP18): > 100 µM
- viability at 2.08 µM (in vitro): 99.1%
- viability at 8.33 µM (in vitro): 93.3%
- viability at 16.65 µM (in vitro): 80.3%
- viability at […] (in vitro): 104% and 102% and 77.8% and 100%
- IC50 (UCH-L3): > 100 µM
- inhibition at 2.08 µM [2]: 15.2%
- inhibition at 8.33 µM [2]: 7.11%
- inhibition at […] [2]: 11.5% and 6.73% and 8.44%
- inhibition ([3]; 2.08 µM): 8.22%
- inhibition ([3]; 8.33 µM): 3.62%

SMILES: O=c1nc(NO)ccn1[C@@H]1O[C@H](CO)[C@@H](O)[C@H]1O [EIDD-1931]
- EC50 [4]: 0.31 µM
- EC90 [5]: 4.9 µM
- EC90 [6]: 2.9 µM
- EC90 (SARS-CoV-2 USA-WA1/2020 [7]; USA-WA1/2020, Caco-2): 0.12 µM
- Virus Titer (SARS-CoV-2 USA-WA1/2020 [7]; 0.1 µg/mL): 3.7 CCID50/mL (Log10)
- Virus Titer (SARS-CoV-2 USA-WA1/2020 [7]; 1 µg/mL): <0.7 CCID50/mL (Log10)
- Virus Titer (SARS-CoV-2 USA-WA1/2020 [7]; 10 µg/mL): <0.7 CCID50/mL (Log10)
- Virus Titer (SARS-CoV-2 USA-WA1/2020 [7]; 32 µg/mL): <0.7 CCID50/mL (Log10)
- Virus Titer (SARS-CoV-2 USA-WA1/2020 [7]; 100 µg/mL): <0.7 CCID50/mL (Log10)
- EC50 (SARS-CoV-2 USA-WA1/2020 [8]; USA-WA1/2020, Vero E6, 2 μM CP-100356): 0.3 µM
- Percent Cytopathic Effect (Neutral Red) (SARS-CoV-2 USA-WA1/2020 [8]; 0.1 µg/mL): 95.9%
- Percent Cytopathic Effect (Neutral Red) (SARS-CoV-2 USA-WA1/2020 [8]; 1 µg/mL): 0.0%
- Percent Cytopathic Effect (Neutral Red) (SARS-CoV-2 USA-WA1/2020 [8]; 10 µg/mL): 0.559%
- Percent Cytopathic Effect (Neutral Red) (SARS-CoV-2 USA-WA1/2020 [8]; 100 µg/mL): 0.0%
- CC50 (Caco-2 cells; Caco-2, Delta rows): > 100 µM
- CC50 (Caco-2 cells; Caco-2, Omicron rows): > 100 µM
- CC50 (Caco-2 cells; Caco-2, USA-WA1/2020 rows): 94 µM
- Percent Cytotoxicity (Neutral Red) (Caco-2 cells; SARS2-740 (Delta set), 0.1 µg/mL): 7.9%
- Percent Cytotoxicity (Neutral Red) (Caco-2 cells; SARS2-740 (Delta set), 1 µg/mL): 14.7%
- Percent Cytotoxicity (Neutral Red) (Caco-2 cells; SARS2-740 (Delta set), 10 µg/mL): 5.3%
- Percent Cytotoxicity (Neutral Red) (Caco-2 cells; SARS2-740 (Delta set), 32 µg/mL): 15.2%
- Percent Cytotoxicity (Neutral Red) (Caco-2 cells; SARS2-740 (Delta set), 100 µg/mL): 30.0%
- Percent Cytotoxicity (Neutral Red) (Caco-2 cells; SARS2-740 (Omicron set), 0.1 µg/mL): 0.118%
- Percent Cytotoxicity (Neutral Red) (Caco-2 cells; SARS2-740 (Omicron set), 1 µg/mL): 4.7%
- Percent Cytotoxicity (Neutral Red) (Caco-2 cells; SARS2-740 (Omicron set), 10 µg/mL): 1.2%
- Percent Cytotoxicity (Neutral Red) (Caco-2 cells; SARS2-740 (Omicron set), 32 µg/mL): 6.1%
- Percent Cytotoxicity (Neutral Red) (Caco-2 cells; SARS2-740 (Omicron set), 100 µg/mL): 24.6%
- Percent Cytotoxicity (Neutral Red) (Caco-2 cells; SARS2-740 (USA-WA1/2020 set), 0.1 µg/mL): 15.6%
- Percent Cytotoxicity (Neutral Red) (Caco-2 cells; SARS2-740 (USA-WA1/2020 set), 1 µg/mL): 13.4%
- Percent Cytotoxicity (Neutral Red) (Caco-2 cells; SARS2-740 (USA-WA1/2020 set), 10 µg/mL): 13.8%
- Percent Cytotoxicity (Neutral Red) (Caco-2 cells; SARS2-740 (USA-WA1/2020 set), 32 µg/mL): 17.6%
- Percent Cytotoxicity (Neutral Red) (Caco-2 cells; SARS2-740 (USA-WA1/2020 set), 100 µg/mL): 51.9%
- CC50 (Vero E6 cells [9]; Vero E6, 2 μM CP-100356, Delta rows): > 100 µM
- CC50 (Vero E6 cells [9]; Vero E6, 2 μM CP-100356, Omicron rows): > 100 µM
- CC50 (Vero E6 cells [9]; Vero E6, 2 μM CP-100356, USA-WA1/2020 rows): > 100 µM
- Percent Cytotoxicity (Neutral Red) (Vero E6 cells [9]; SARS2-733 (Delta set), 0.1 µg/mL): 2.1%
- Percent Cytotoxicity (Neutral Red) (Vero E6 cells [9]; SARS2-733 (Delta set), 1 µg/mL): 5.1%
- Percent Cytotoxicity (Neutral Red) (Vero E6 cells [9]; SARS2-733 (Delta set), 10 µg/mL): 36.7%
- Percent Cytotoxicity (Neutral Red) (Vero E6 cells [9]; SARS2-733 (Delta set), 100 µg/mL): 48.2%
- Percent Cytotoxicity (Neutral Red) (Vero E6 cells [9]; SARS2-733 (Omicron set), 0.1 µg/mL): 0.0%
- Percent Cytotoxicity (Neutral Red) (Vero E6 cells [9]; SARS2-733 (Omicron set), 1 µg/mL): 0.0%
- Percent Cytotoxicity (Neutral Red) (Vero E6 cells [9]; SARS2-733 (Omicron set), 10 µg/mL): 28.4%
- Percent Cytotoxicity (Neutral Red) (Vero E6 cells [9]; SARS2-733 (Omicron set), 100 µg/mL): 45.6%
- Percent Cytotoxicity (Neutral Red) (Vero E6 cells [9]; SARS2-735, 0.1 µg/mL): 0.0%
- Percent Cytotoxicity (Neutral Red) (Vero E6 cells [9]; SARS2-735, 1 µg/mL): 0.0%
- Percent Cytotoxicity (Neutral Red) (Vero E6 cells [9]; SARS2-735, 10 µg/mL): 23.0%
- Percent Cytotoxicity (Neutral Red) (Vero E6 cells [9]; SARS2-735, 100 µg/mL): 38.9%
